Assay results from article PMC11952508 (bioRxiv, 2025).

Experiments:
Assay in all cases: in vitro NanoGlo kinase activity assay, n=[…]
Type in all cases: biochemical
CLK3 = CLK3 (Homo sapiens, UniProt P49761)
CLK1 = CLK1 (Homo sapiens, UniProt P49759)
CLK2 = CLK2 (Homo sapiens, UniProt P49760)
Chain of CLK2 (P49760 whole entry): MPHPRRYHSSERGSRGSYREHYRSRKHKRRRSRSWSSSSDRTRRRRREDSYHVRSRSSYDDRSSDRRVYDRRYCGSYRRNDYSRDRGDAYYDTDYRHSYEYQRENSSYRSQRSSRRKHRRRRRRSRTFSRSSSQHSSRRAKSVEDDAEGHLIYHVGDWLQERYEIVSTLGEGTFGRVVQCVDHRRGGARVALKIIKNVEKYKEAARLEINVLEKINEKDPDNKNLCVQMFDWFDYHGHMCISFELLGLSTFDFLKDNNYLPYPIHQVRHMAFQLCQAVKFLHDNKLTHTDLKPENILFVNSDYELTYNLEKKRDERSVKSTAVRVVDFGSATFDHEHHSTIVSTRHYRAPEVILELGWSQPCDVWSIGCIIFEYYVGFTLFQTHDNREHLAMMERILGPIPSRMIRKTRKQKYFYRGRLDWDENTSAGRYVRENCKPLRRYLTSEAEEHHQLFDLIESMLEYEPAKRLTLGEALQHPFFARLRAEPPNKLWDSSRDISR

Chain of CLK3 (P49761 whole entry): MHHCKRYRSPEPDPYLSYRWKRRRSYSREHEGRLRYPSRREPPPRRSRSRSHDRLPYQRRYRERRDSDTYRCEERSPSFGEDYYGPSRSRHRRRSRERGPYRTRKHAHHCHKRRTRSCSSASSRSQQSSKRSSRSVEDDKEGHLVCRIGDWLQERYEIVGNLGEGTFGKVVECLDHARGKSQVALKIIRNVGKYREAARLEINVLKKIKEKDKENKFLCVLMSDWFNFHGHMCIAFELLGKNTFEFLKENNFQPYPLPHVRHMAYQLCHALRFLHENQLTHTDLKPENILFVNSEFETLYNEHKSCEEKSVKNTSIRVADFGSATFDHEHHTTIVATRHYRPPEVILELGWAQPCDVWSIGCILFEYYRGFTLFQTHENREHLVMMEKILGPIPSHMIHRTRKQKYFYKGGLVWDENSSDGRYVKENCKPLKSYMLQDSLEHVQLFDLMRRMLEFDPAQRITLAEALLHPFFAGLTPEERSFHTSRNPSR
Chain of CLK1 (P49759 whole entry): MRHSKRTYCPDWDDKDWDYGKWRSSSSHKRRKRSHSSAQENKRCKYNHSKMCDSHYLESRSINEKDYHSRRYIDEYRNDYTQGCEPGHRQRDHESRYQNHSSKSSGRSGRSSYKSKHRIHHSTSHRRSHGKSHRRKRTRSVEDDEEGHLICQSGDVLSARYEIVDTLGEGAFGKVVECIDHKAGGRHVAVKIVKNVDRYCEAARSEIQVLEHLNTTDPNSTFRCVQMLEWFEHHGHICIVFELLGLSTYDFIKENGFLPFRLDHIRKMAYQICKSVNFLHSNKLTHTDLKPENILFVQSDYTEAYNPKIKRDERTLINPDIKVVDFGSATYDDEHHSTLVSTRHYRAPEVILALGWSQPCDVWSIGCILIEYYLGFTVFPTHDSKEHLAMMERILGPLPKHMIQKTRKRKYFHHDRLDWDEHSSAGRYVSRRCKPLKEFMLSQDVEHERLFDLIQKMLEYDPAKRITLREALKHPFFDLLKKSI

O=C(Nc1cc(C2CCCC2)n[nH]1)c1ccc2c(c1)[nH]c(=O)n2C1CCCC1 [SR-1815]
IC50 (CLK3): 6800 nM | IC50 (CLK1): 446 nM | IC50 (CLK2): 605 nM
